“Also recorded” adds a separate entry of the source.
Assays:
mouse bone marrow = experiment: HE staining of bone marrow paraffin sections of treated K562 xenograft mice; format: in vivo, BALB/c nu/nu mice; conditions: combination compared with IDR alone
Method: Methods: Cyclophosphamide (CTX) (Jiangsu Hengrui Medicine Co., Ltd.) was used for intraperitoneal injection in BALB/c nu/nu female mice (6-8 weeks of age) and injection lasted for two days. One day after the second cyclophosphamide injection, 1.5×10^7 of K562 cells were injected subcutaneously into the single armpit of the mice. The mice bearing K562 cell xenografts were divided randomly into nine groups (n=6, i.e., six mice in each group) and i.p. treated with normal saline, PDCD5, IDR (Sigma Corporation), and IDR plus PDCD5. Normal saline, PDCD5 (200 μg, 400 μg, or 800 μg, i.e., 10 mg/kg, 20 mg/kg, or 40 mg/kg), […]., 1.25 mg/kg) and […]., 1.25 mg/kg) plus PDCD5 (200 μg, 400 μg, or 800 μg, i.e., 10 mg/kg, 20 mg/kg, or 40 mg/kg) were used for intraperitoneal injection and were given every other day for a total of five treatments. […] At the end of the experiment, mice were killed. The mice were the same batch of that in Example 6. The excised bone of mice after treatment were fixed in 10% neutrally buffered formalin and then embedded in paraffin after dehydration. The paraffin embedding was cut and paraffin sections after HE staining were used to count the number of nucleated cells of each group in mouse bone marrow paraffin sections.

K562 cell xenografts = K562 cell xenografts in nude mice, IDR; format: in vivo, BALB/c nude mice; conditions: IDR 70 μg
Method: Methods: BALB/c nude female mice (6-8 weeks of age) were used, and the mice were pretreated by i.p. injections of cyclophosphamide (Jiangsu Hengrui Medicine Co., Ltd.) once daily at a dose of 2 mg per mouse for two consecutive days. After two days of the cyclophosphamide injection, 1.5×10^7 K562 cells were injected subcutaneously into the single flanks of the mouse. The mice bearing K562 cell xenografts were divided randomly into five groups: Normal saline, irrelevant protein, rhPDCD5, IDR (idarubicin, Sigma Company), and IDR plus rhPDCD5. IDR treatments were given every other day i.p. The longest diameter and shortest diameter of tumors were measured by vernier caliper at the beginning of treatment and during the treatment. […] At the end of the experiment, the mice were killed and tumor masses were dissected and then weighed. […] Tumor volume was calculated using the following formula: πls^2/6, where 1=long diameter and s=short diameter.

K562 cells [1] = experiment: clonogenic assay of agarose, IDR; format: cell-based; conditions: Homo sapiens, K562, 336 h; IDR 35 ng/mL; PDCD5 15-60 μg/mL where combined; 14 days; read-out: rate of clonogenic inhibition
Method: Clonogenic assay of agarose: Cell concentration was adjusted to 2.5×10^5 cell/mL. NS (control group) was prepared by taking 0.01 mL single-cell suspension, 0.5 mL 1% agarose, and 0.5 mL 2×RPMI 1640 medium containing 20% FCS, to bring the culture system to 1.0 mL. Test groups were prepared by taking 0.01 mL single-cell suspension and 0.5 mL 1% agarose, and taking IDR and PDCD5 diluted with 2×RPMI 1640 medium containing 20% FCS to an appropriated volume (having a final concentration of 35 ng/mL for IDR, and a final concentration of 15 μg/mL, 30 μg/mL, or 60 μg/mL for PDCD5 in each respective test group) and further diluted by adding 2×RPMI 1640 medium containing 20% FCS to 0.5 mL, and bringing the culture system to 1.0 mL. The culture system was added to 24-well plates, with 1 mL per well, and triplicate wells for each group. The plates were incubated in a CO2 incubator for 14 days until colonies formed. The clonogenic number was counted by microscope. A colony with more than 30 cells was counted as one positive colony.

mouse livers [2] = experiment: HE staining of liver paraffin sections of treated K562 xenograft mice; format: in vivo, BALB/c nu/nu mice
Method: (§1) Methods: BALB/c nu/nu female mice (6-8 weeks of age) were injected intraperitoneally with cyclophosphamide (CTX) (Jiangsu Hengrui Medicine Co., Ltd.), 2 mg/day per mouse for two days. One day after the second cyclophosphamide injection, 1.5×10^7 of K562 cells were injected subcutaneously into the single armpit of each of the mice. The mice bearing K562 cell xenografts were divided randomly into nine groups (n=6, i.e., six mice in each group) and each of the mice was i.p. treated, respectively, with normal saline, PDCD5, IDR (Sigma Corporation), and IDR plus PDCD5. […] At the end of the experiment, mice were killed. The mice were the same batch of that of Example 6. The excised liver of mice after treatment were fixed in 10% neutrally buffered formalin and then embedded in paraffin after dehydration. The paraffin embedding was cut and paraffin sections after HE staining were used to observe the necrosis of experimental mouse livers. Meanwhile, paraffin sections after Tunel (Roche Inc.) staining were used to observe the apoptosis of experimental mouse livers, and then the number of apoptotic cells was counted in five high-power microscope field for statistical analysis.

K562 cells [3] = experiment: FITC/Annexin-V apoptosis by flow cytometry, IDR; format: cell-based; conditions: IDR 56 ng/mL; PDCD5 30 μg/mL where combined; 24 hours
Method: Methods: Cell staining with FITC/Annexin-V and cell apoptosis in vitro detection by flow cytometry: K562 cells (ATCC) were maintained in RPMI 1640 (Life Technologies, USA) supplemented with 10% FBS (Hyclone, USA), and were plated in 24-well culture dishes to a density of 2×10^5 cells/mL. rhPDCD5 protein was added with a final concentration of 7.5 μg/mL, 15 μg/mL and 30 μg/mL, respectively, in each well. Chemotherapeutic drug IDR was then added with a final concentration of 56 ng/mL and RPMI 1640 with 10% FBS was added to make the system to 1 mL. After 24 hours of co-culture, the cells were stained with FITC/Annexin-V (Baosai company) and apoptosis was detected by flow cytometry.

mice hearts = experiment: HE staining of heart paraffin sections of treated K562 xenograft mice; format: in vivo, BALB/c nu/nu mice
Method: as §1, with “hearts” for “liver”, “myocardial congestion, hemorrhage, and myofiber degeneration” for “necrosis”, “heart” for “experimental mouse livers. Meanwhile, paraffin sections after Tunel (Roche Inc.) staining were used to observe the apoptosis of experimental mouse livers, and then the number of apoptotic cells was counted”, “mice.” for “five high-power microscope field for statistical analysis.”

mouse livers [4] = experiment: Tunel staining of liver paraffin sections of treated K562 xenograft mice; format: in vivo, BALB/c nu/nu mice; conditions: five high power microscope fields
Method: Methods: BALB/c nu/nu female mice (6-8 weeks of age) were injected intraperitoneally with cyclophosphamide (CTX) (Jiangsu Hengrui Medicine Co., Ltd.), 2 mg/day per mouse for two days. One day after the second cyclophosphamide injection, 1.5×10^7 of K562 cells were injected subcutaneously into the single armpit of each of the mice. The mice bearing K562 cell xenografts were divided randomly into nine groups (n=6, i.e., six mice in each group) and each of the mice was i.p. treated, respectively, with normal saline, PDCD5, IDR (Sigma Corporation), and IDR plus PDCD5. Normal saline, PDCD5 (200 μg, 400 μg, or 800 μg, i.e., 10 mg/kg, 20 mg/kg, or 40 mg/kg, respectively), IDR (25 μg, i.e., 1.25 mg/kg) and IDR (25 μg, i.e., 1.25 mg/kg) plus PDCD5 (200 μg, 400 μg, or 800 μg, i.e., 10 mg/kg, 20 mg/kg, or 40 mg/kg, respectively) were used for intraperitoneal injection every other day for a total of five treatments. […] At the end of the experiment, mice were killed.
The excised liver of mice after treatment were fixed in 10% neutrally buffered formalin and then embedded in paraffin after dehydration. […] Meanwhile, paraffin sections after Tunel (Roche Inc.) staining were used to observe the apoptosis of experimental mouse livers, and then the number of apoptotic cells was counted in five high-power microscope field for statistical analysis.

U937 cells = experiment: PDCD5-FITC internalization, flow cytometry; format: cell-based; conditions: incubated at 4° C.
HEK293 cells [5] = experiment: intracellular localization of FITC-labeled PDCD5, fluorescence microscopy; format: cell-based; conditions: 20 μg/mL, 5 hours
Method: Analysis of intracellular localization of the FITC-labeled recombinant PDCD5 protein by fluorescence microscopy: HEK293 cells were grown in specialized glass-bottom microwell dishes (MatTek Corp., USA) to about 50% confluence and washed, and then fresh 10% fetal bovine serum medium and PDCD5-FITC was added to a final concentration of 20 μg/mL. At each time point shown in the drawing, the cells were rinsed twice with PBS buffer and fixed with 2% paraformaldehyde in PBS for 15 min at room temperature. Cells were imaged using a TCS-SP laser-scanning confocal microscope with a 40× or 63×oil immersion lenses (Leica Microsystems, Mannheim, Germany). Nuclei were visualized by Hoechst 33342 (red regions, a pseudocolor).

HEK293 cells [6] = experiment: PDCD5-FITC internalization, flow cytometry; format: cell-based; conditions: incubated at 4° C.
Method: Methods: HEK293 and U937 cells (ATCC) were maintained in RPMI 1640 (Life Technologies, USA), supplemented with 10% heat-inactivated fetal bovine serum (Hyclone, USA), penicillin (100 units/mL), streptomycin (100 μg/mL), and L-glutamine (2 mM). The HEK293 cells were adherent cells with expression of caveolin-1, while the U937 cells were suspension cells without expression of caveolin-1.
The purified rhPDCD5 protein from Example 2 was suspended into 0.025 M sodium carbonate-sodium bicarbonate buffer (pH 9.0). The rhPDCD5 protein was labeled (covalent) by fluorescein isothiocyanate (FITC, Sigma-Aldrich) as described by Masseyeff R. F. et al. (Methods Immunology Analysis 3, 237-238, 1993), and then purified by Sephadex G25 to remove free FITC to obtain PDCD5-FITC protein.
Results: Performance of Flow Cytometry: Quantification of internalized FITC-labeled PDCD5 recombinant protein: HEK293cells were plated in 24-well plates to about 70% confluence, […] FIG. 3. After incubation, the cells were then washed twice, trypsinized, centrifuged, again washed twice with PBS, and finally analyzed by flow cytometry using a FACSCalibur flow cytometer (BD Biosciences).

[7] = no PDCD5, Imatinib 1.2 mg oral or IDR 25 μg i.p., n=6

number of mouse bone marrow nucleated cells (mouse bone marrow) | myocardial hemorrhage and congestion, and myofiber fracture/degeneration (in words) (mice hearts; HE staining) | Myocardial hemorrhage and congestion: mice graded + (mice hearts; [7]) | Myocardial hemorrhage and congestion: mice graded ++ (mice hearts; [7]) | Myocardial hemorrhage and congestion: mice graded − (mice hearts; [7]) | Myofiber degeneration: mice graded + (mice hearts; [7]) | Myofiber degeneration: mice graded − (mice hearts; [7]) | Molecule | tumor inhibitory rate (K562 cell xenografts; PDCD5 local (intratumoral) injection, 60 μg where combined) [%] | tumor inhibitory rate (K562 cell xenografts; treatment started at average tumor volume 57.7 mm^3, PDCD5 i.p. 800 μg where combined) [%] | inhibition at 0.035 µg/mL (K562 cells [1]) [%] | sinusoidal expansion, congestive hemorrhage and necrosis of liver cells surrounding sinusoid (in words) (mouse livers [2]; HE staining) | Sinusoidal expansion, congestive hemorrhage and necrosis of liver cells surrounding sinusoid: mice graded + (mouse livers [2]; [7]) | Sinusoidal expansion, congestive hemorrhage and necrosis of liver cells surrounding sinusoid: mice graded ++ (mouse livers [2]; [7]) | Sinusoidal expansion, congestive hemorrhage and necrosis of liver cells surrounding sinusoid: mice graded +/− (mouse livers [2]; [7]) | Sinusoidal expansion, congestive hemorrhage and necrosis of liver cells surrounding sinusoid: mice graded − (mouse livers [2]; [7]) | cell apoptosis rate (K562 cells [3]) [%] | number of apoptotic cells in mice liver, IDR alone vs IDR combined with PDCD5 (mouse livers [4]) | internalization (uptake) at 4° C. (U937 cells) | intracellular localization of fluorescence (HEK293 cells [5]) | internalization (uptake) at 4° C. (HEK293 cells [6])
decreased | significant | 3 number of mice | 3 number of mice | 0 number of mice | 3 number of mice | 3 number of mice | CC(=O)[C@]1(O)Cc2c(O)c3c(c(O)c2[C@@H](O[C@H]2C[C@H](N)[C@H](O)[C@H](C)O2)C1)C(=O)c1ccccc1C3=O [IDR, idarubicin] | 60.27 | 62.79 | 35.5 | significant | 3 number of mice | 3 number of mice | 0 number of mice | 0 number of mice | 22.57 | significantly higher |  |  | 
 |  |  |  |  |  |  | PDCD5-FITC: rhPDCD5 protein covalently labeled by fluorescein isothiocyanate (conjugate, UniProt O14737 2-125, looked up, FITC label, rhPDCD5 protein covalently labeled by fluorescein isothiocyanate) Programmed cell death protein …: ADEELEALRRQRLAELQAKHGDPGDAAQQEAKHREAEMRNSILAQVLDQSARARLSNLALVKPEKTKAVENYLIQMARYGQLSEKVSEQGLIEILKKVSQQTEKTTTVKFNRRKVMDSDEDDDY |  |  |  |  |  |  |  |  |  |  | blocked; also recorded: inhibited | localized to discrete compartments in the cytoplasm | blocked; also recorded: inhibited
